Laboratory results reported in patent publication US11040949B2, “Compounds affecting pigment production and methods for treatment of bacterial diseases” (Versitech Limited, priority 2017, dated 2021).
In brackets after ≈: the same amount, converted by molar mass.

Key:
[1] = system: S. aureus USA300; assay: In vitro staphyloxanthin production inhibition by NP-16 analogues; assay type: cell-based, Staphylococcus aureus; settings: S. aureus USA300, methanol extract OD 450 nm, 300 nM to 700 nM
Procedure: Evaluation of NP-16 analogues in Staphyloxanthin production
The in vitro pigment inhibition studies were performed by S. aureus USA300 cultured in BHI with or without the presence of inhibitor compounds at 37° C. and 250 rpm for 36-48 hours. The bacteria were washed twice with PBS prior to the staphyloxanthin purification with methanol. The OD of the extracts were monitor at 450 nm using DTX880 multi-plate reader spectrophotometer (Beckman). The concentration range tested for the compounds were between 300 nM to 700 nM, and control groups were added with equal volume of DMSO.
The cytotoxicity of NP-16 and some of its analogues was tested against Raw 264.7 cells, and the cell tolerance of each compounds were documented in Table 3. Along with the in vitro staphyloxanthin production of the NP-16 analogues were being tested, the compounds can exert staphyloxanthin production inhibition. The staphyloxanthin from the overnight-cultured bacteria were extracted with methanol and quantified in via spectrophotometry. The results were presented in relative ratio to NP-16 in both the inhibition ratio as well as the TC50 (concentration for decreasing cell viability by 50%) in Table 3 (sample names correspond to those listed in Table 1).

[2] = Solubility in simulated gastric and intestinal fluids; assay type: physicochemical
Description: The following table (Table 4) illustrates the solubility of two different compounds, NP16-XL-016 (hereinafter as “IM032”) and NP16-XL-061 (hereinafter as “IM032-C”), in two solutions with different pH values simulating the pH of gastric juice and human intestinal fluid using HCl and phosphate buffer respectively.

[3] = Solubility in commonly used solvents for oral administration; assay type: physicochemical

| SMILES | Relative ratio to NP16 based on inhibition ratio [1] | further results |
| --- | --- | --- |
| O=C(/C=C/c1ccccc1Br)Nc1ccc(C(=O)Nc2ccccc2)cc1 [NP16-XL-048, 3-(6-bromphenyl)-N-[(4-phenylamine-carbonyl)phenyl]-acrylamide] | 0.23 | – |
| O=C(/C=C/c1ccc(Br)cc1)Nc1ccc(S(=O)(=O)N2CCCCC2)cc1 [NP16-XL-014, 3-(4-bromophenyl)-N-[4-(1-piperidine-1-sulfonyl)phenyl]-acrylamide] | 0.74 | – |
| O=C(/C=C/c1ccccc1F)Nc1ccc(S(=O)(=O)Nc2ccccc2)cc1 [NP16-XL-041, 3-(6-fluorophenyl)-N-[(4-phenyl-sulfamoyl)phenyl]-acrylamide] | 3.17 | – |
| N#Cc1ccccc1/C=C/C(=O)Nc1ccc(S(=O)(=O)Nc2ccccc2)cc1 [NP16-XL-043, 3-(6-cyanophenyl)-N-[(4-phenyl-sulfamoyl)phenyl]-acrylamide] | 3.23 | – |
| O=C(Nc1ccc(S(=O)(=O)N2CCCCC2)cc1)c1cc(-c2cccs2)on1 [NP16-XL-060, 4-[2-(thiophen-5-yl)-1,5-oxazole]-N-[4-(1-piperidine-1-sulfonyl)phenyl]-amide] | 0.06 | – |
| CC(=O)Oc1ccccc1/C=C/C(=O)Nc1ccc(S(=O)(=O)N2CCCCC2)cc1 [NP16-XL-013, 3-(6-acetoxyl-phenyl)-N-[4-(1-piperidine-1-sulfonyl)phenyl]-acrylamide] | 0.28 | – |
| O=C(/C=C/c1ccc(Br)cc1)Nc1ccc(S(=O)(=O)N2CCCc3ccccc32)cc1 [NP16-XL-029, 3-(4-bromophenyl)-N-[4-(1,2,3,4--tetra-hydroquinoline-1-sulfonyl)phenyl]-acrylamide] | 0.53 | – |
| CC(=O)Oc1cccc(/C=C/C(=O)Nc2ccc(S(=O)(=O)N3CCCCC3)cc2)c1 [NP16-XL-012, 3-(5-acetoxyl-phenyl)-N-[4-(1-piperidine-1-sulfonyl)phenyl]-acrylamide] | 1.16 | – |
| O=C(/C=C/c1ccccc1Br)Nc1ccc(S(=O)(=O)N(C(=O)/C=C/c2ccccc2Br)c2ccccc2)cc1 [NP16-XL-039, 3-(6-bromophenyl)-N-{[4-(N-phenyl-3-6-bromophenyl-prop-2-enamido)-sulfonyl]phenyl}-acrylamide] | 3.23 | – |
| O=C(/C=C/c1c(Br)cccc1Br)Nc1ccc(S(=O)(=O)N2CCCCC2)cc1 [NP16-XL-058, 3-(2,6-dibromo-phenyl)-N-[4-(1-piperidine-1-sulfonyl)phenyl]-acrylamide] | 0.16 | – |
| O=C(/C=C/c1cccc(Br)c1)Nc1ccc(S(=O)(=O)N2CCCCC2)cc1 [NP16-XL-015, 3-(5-bromophenyl)-N-[4-(1-piperidine-1-sulfonyl)phenyl]-acrylamide] | 1.18 | – |
| N#Cc1ccccc1/C=C/C(=O)Nc1ccc(C(=O)Nc2ccccc2)cc1 [NP16-XL-049, 3-(6-cyanophenyl)-N-[(4-phenylamine-carbonyl)phenyl]-acryiamide] | 0.21 | – |
| O=C(/C=C/c1ccccc1)Nc1ccc(S(=O)(=O)Nc2ccccc2)cc1 [NP16-XL-037, 3-phenyl-N-[(4-phenylsulfamoyl)-phenyl]acrylamide] | 3.02 | – |
| Cc1ccccc1/C=C/C(=O)Nc1ccc(S(=O)(=O)N2CCCCC2)cc1 [NP16-XL-018, 3-(6-methylphenyl)-N-[4-(1-piperidine-1-sulfonyl)phenyl]-acrylamide] | 2.48 | – |
| O=C(/C=C/c1ccc(Br)cc1)Nc1ccc(S(=O)(=O)N2CCc3ccccc3C2)cc1 [NP16-XL-031, 3-(4-bromophenyl)-N-[4-(3,4-dihydro-1H-isoquinoline-2-sulfonyl)phenyl]-acrylamide] | 0.23 | – |
| O=C(/C=C/c1c(F)cccc1F)Nc1ccc(S(=O)(=O)Nc2ccccc2)cc1 [NP16-XL-040, 3-(2,6-difluoro-phenyl)-N-[(4-phenylsulfamoyl)-phenyl]acrylamide] | 2.51 | – |
| O=C(/C=C/c1ccccc1)Nc1ccc(S(=O)(=O)N2CCCc3ccccc32)cc1 [NP16-XL-030, 3-phenyl-N-[4-(1,2,3,4--tetra-hydroquinoline-1-sulfonyl)phenyl]-acrylamide] | 1.26 | – |

| SMILES | Relative ratio to NP16 based on inhibition ratio [1] | further results |
| --- | --- | --- |
| N#Cc1ccccc1/C=C/C(=O)Nc1ccc(S(=O)(=O)N2CCCCC2)cc1 [NP16-XL-047, 3-(6-cyanophenyl)-N-[4-(1-piperidine-1-sulfonyl)phenyl]-acrylamide] | 3.18 | – |
| O=C(/C=C/c1ccccc1)Nc1ccc(S(=O)(=O)N(C(=O)/C=C/c2ccccc2)c2ccccc2)cc1 [NP16-XL-036, 3-phenyl-N-{[4-(N-phenyl-3-phenylprop-2-enamido)sulfonyl]-phenyl}-acrylamide] | 3.04 | – |
| O=C(/C=C/c1cccnc1)Nc1ccc(S(=O)(=O)Nc2ccccc2)cc1 [NP16-XL-042, 3-(pyridin-3-yl)-N-[(4-phenyl-sulfamoyl)phenyl]-acrylamide] | 1.44 | – |
| O=C(Nc1ccc(S(=O)(=O)N2CCCCC2)cc1)c1ncoc1-c1ccccc1 [NP16-XL-057, 4-(5-phenyl-1,3-oxazole)-N-[4-(1-piperidine-1-sulfonyl)phenyl]-amide] | 0.14 | – |
| O=C(/C=C/c1c(F)cccc1F)Nc1ccc(S(=O)(=O)N2CCCCC2)cc1 [NP16-XL-045, 3-(2,6-difluoro-phenyl)-N-[4-(1-piperidine-1-sulfonyl)phenyl]-acrylamide] | 0.88 | – |
| CN1CCN(S(=O)(=O)c2ccc(NC(=O)/C=C/c3ccccc3F)cc2)CC1 [NP16-XL-054, 3-(6-fluorophenyl)-N-[4-(4-methyl-1,4-piperazine-1-sulfonyl)phenyl]-acrylamide] | 2.86 | – |
| CC(=O)Oc1ccc(/C=C/C(=O)Nc2ccc(S(=O)(=O)N3CCCCC3)cc2)cc1 [NP16-XL-011, 3-(4-acetoxyl-phenyl)-N-[4-(1-piperidine-1-sulfonyl)phenyl]-acrylamide] | 1.31 | – |
| O=C(/C=C/c1ccccc1)Nc1ccc(S(=O)(=O)N2CCc3ccccc3C2)cc1 [NP16-XL-032, 3-phenyl-N-[4-(3,4-dihydro-1H-isoquinoline-2-sulfonyl)phenyl]-acrylamide] | 1.17 | – |
| O=C(/C=C/c1ccccc1Cl)Nc1ccc(S(=O)(=O)N2CCCCC2)cc1 [NP16-XL-061, 3-(6-chlorophenyl)-N-[4-(1-piperidine-1-sulfonyl)phenyl]-acrylamide] | – | Solubility in pH 2 (0.1N HCl + 0.1% Tween 80)-simulating human stomach ([2]; pH 2): <LOQ; solubility ([2]; pH 7.4, aqueous with cosolvent or surfactant or cyclodextrin, read-out: Solubility in pH 7.4 (KH2PO4 + 0.1% Tween 80)-simulating human intestine): 0.0856 µg/mL; solubility ([3]; 1:1 Labrasol ALF/PEG300, organic solvent or mixture): 6340 µg/mL (≈ 15.7 mM); solubility ([3]; 1:1 Labrasol ALF/PEG400, organic solvent or mixture): 7600 µg/mL (≈ 18.8 mM); solubility ([3]; Labrasol ALF, oil or lipid): 6080 µg/mL (≈ 15 mM); solubility ([3]; PEG300, organic solvent or mixture): 7150 µg/mL (≈ 17.7 mM); solubility ([3]; PEG400, organic solvent or mixture): 6940 µg/mL (≈ 17.1 mM) |
| O=C(/C=C/c1ccccn1)Nc1ccc(S(=O)(=O)Nc2ccccc2)cc1 [NP16-XL-044, 3-(pyridin-2-yl)-N-[(4-phenyl-sulfamoyl)phenyl]-acrylamide] | 2.47 | – |
| N#Cc1ccc(-c2cc(C(=O)Nc3ccc(S(=O)(=O)N4CCCCC4)cc3)no2)cc1 [NP16-XL-059, 4-[2-(4-cyano-phenyl)-1,5-oxazole]-N-[4-(1-piperidine-1-sulfonyl)phenyl]-amide] | 0.06 | – |
| CN1CCN(S(=O)(=O)c2ccc(NC(=O)/C=C/c3c(F)cccc3F)cc2)CC1 [NP16-XL-053, 3-(2,6-difluoro-phenyl)-N-[4-(4-methyl-1,4-piperazine-1-sulfonyl)phenyl]-acrylamide] | 1.26 | – |
| O=C(/C=C/c1ccccc1Br)Nc1ccc(S(=O)(=O)Nc2ccccc2)cc1 [NP16-XL-038, 3-(6-bromophenyl)-N-[(4-phenylsul-famoyl)phenyl]-acrylamide] | 3.23 | – |
| CN1CCN(S(=O)(=O)c2ccc(NC(=O)/C=C/c3ccccc3C#N)cc2)CC1 [NP16-XL-055, 3-(6-cyanophenyl)-N-[4-(4-methyl-1,4-piperazine-1-sulfonyl)phenyl]-acrylamide] | 3.19 | – |
| Cc1ccc(/C=C/C(=O)Nc2ccc(S(=O)(=O)N3CCCCC3)cc2)cc1 [NP16-XL-017, 3-(4-methylphenyl)-N-[4-(1-piperidine-1-sulfonyl)phenyl]-acrylamide] | 0.09 | – |
| CN1CCN(S(=O)(=O)c2ccc(NC(=O)/C=C/c3ccccc3Br)cc2)CC1 [NP16-XL-052, 3-(6-bromophenyl)-N-[4-(4-methyl-1,4-piperazine-1-sulfonyl)phenyl]-acrylamide] | 3.18 | – |
| O=C(/C=C/c1ccccc1)Nc1ccc(S(=O)(=O)N2CCCCC2)cc1 [NP16-XL-010, 3-phenyl-N-[4-(1-piperidine-1-sulfonyl)-phenyl]acrylamide] | 1.43 | – |
